# In ChEMBL document CHEMBL3132769, “Fragment growing to retain or alter the selectivity of anchored kinase hinge-binding fragments” (Medchemcomm, 2014):
# How the values were obtained:
# [1] = biological target: Protein kinase C eta type (Homo sapiens) (UniProt P24723); experiment: Inhibition of human truncated PKC eta expressed in baculovirus assessed as substrate phosphorylation using fluorescence-labelled peptides as substrate at 8 uM after 90 mins by microfluidic peptide phosphorylation assay
# Chain of Protein kinase C eta type (Homo sapiens) (P24723 whole entry, the tested form may be a part): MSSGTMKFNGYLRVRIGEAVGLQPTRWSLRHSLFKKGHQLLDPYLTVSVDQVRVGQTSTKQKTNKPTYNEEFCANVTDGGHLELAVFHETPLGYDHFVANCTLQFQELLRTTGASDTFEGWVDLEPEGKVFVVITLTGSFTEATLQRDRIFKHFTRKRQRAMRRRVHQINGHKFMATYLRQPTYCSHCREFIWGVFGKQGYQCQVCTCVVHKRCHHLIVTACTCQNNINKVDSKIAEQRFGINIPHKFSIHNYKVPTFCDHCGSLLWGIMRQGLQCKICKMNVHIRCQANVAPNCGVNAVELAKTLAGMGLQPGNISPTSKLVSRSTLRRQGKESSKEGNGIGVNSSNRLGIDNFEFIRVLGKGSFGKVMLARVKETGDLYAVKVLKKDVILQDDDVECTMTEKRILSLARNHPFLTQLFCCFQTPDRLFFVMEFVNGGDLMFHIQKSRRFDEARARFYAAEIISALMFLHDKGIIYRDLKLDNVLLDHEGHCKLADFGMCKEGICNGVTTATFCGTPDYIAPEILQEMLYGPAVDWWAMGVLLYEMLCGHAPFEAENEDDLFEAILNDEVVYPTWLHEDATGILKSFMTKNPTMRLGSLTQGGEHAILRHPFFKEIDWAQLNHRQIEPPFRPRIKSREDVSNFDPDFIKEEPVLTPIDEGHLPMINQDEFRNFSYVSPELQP
# [2] = biological target: Mitogen-activated protein kinase kinase kinase kinase 4 (Homo sapiens) (UniProt O95819); experiment: Inhibition of human HGK catalytic domain expressed in baculovirus assessed as substrate phosphorylation using fluorescence-labelled peptides as substrate at 8 uM after 90 mins by microfluidic peptide phosphorylation assay
# [3] = biological target: Proto-oncogene tyrosine-protein kinase Src (Homo sapiens) (UniProt P12931); experiment: Inhibition of human full length SRC expressed in baculovirus assessed as substrate phosphorylation using fluorescence-labelled peptides as substrate at 8 uM after 90 mins by microfluidic peptide phosphorylation assay
# [4] = biological target: T1, Serine/threonine-protein kinase 3 (Homo sapiens) (UniProt Q13188); experiment: Inhibition of human full length MST2 expressed in baculovirus assessed as substrate phosphorylation using fluorescence-labelled peptides as substrate at 0.06 uM after 90 mins by microfluidic peptide phosphorylation assay
# T1 sequence (whole entry): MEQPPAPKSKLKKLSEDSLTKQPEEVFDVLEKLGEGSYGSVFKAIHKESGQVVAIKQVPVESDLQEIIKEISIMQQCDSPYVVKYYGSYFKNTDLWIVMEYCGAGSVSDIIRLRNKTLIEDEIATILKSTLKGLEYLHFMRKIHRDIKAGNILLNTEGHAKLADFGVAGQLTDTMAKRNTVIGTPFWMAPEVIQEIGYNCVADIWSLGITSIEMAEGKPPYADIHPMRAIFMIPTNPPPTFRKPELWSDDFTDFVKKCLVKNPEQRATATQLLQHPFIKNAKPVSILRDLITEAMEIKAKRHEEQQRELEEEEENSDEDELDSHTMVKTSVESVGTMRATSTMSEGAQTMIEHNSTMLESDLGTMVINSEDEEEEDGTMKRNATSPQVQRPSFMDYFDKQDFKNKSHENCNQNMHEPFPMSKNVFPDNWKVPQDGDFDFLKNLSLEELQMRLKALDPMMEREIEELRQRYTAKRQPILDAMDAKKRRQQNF
# [5] = biological target: Protein kinase C eta type (Homo sapiens) (UniProt P24723); experiment: Inhibition of human truncated PKC eta expressed in baculovirus assessed as substrate phosphorylation using fluorescence-labelled peptides as substrate at 0.2 uM after 90 mins by microfluidic peptide phosphorylation assay
# [6] = biological target: Dual specificity tyrosine-phosphorylation-regulated kinase 1A (Rattus norvegicus) (UniProt Q63470); experiment: Inhibition of rat full length DYRK1a expressed in Escherichia coli cell assessed as substrate phosphorylation using fluorescence-labelled peptides as substrate at 0.2 uM after 90 mins by microfluidic peptide phosphorylation assay
# [7] = biological target: T2, Aurora kinase C (Homo sapiens) (UniProt Q9UQB9); experiment: Inhibition of human full length AurC expressed in baculovirus assessed as substrate phosphorylation using fluorescence-labelled peptides as substrate at 9 uM after 90 mins by microfluidic peptide phosphorylation assay
# T2 sequence (whole entry): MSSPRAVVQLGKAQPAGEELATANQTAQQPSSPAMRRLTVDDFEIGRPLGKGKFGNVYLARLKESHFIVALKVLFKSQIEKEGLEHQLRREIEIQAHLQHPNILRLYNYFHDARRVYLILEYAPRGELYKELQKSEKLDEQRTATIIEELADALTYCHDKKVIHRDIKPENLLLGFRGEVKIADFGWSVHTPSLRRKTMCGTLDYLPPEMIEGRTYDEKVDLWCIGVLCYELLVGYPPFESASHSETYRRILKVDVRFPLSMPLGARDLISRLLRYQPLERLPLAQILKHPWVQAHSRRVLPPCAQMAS
# [8] = biological target: Serine/threonine-protein kinase MARK1 (Homo sapiens) (UniProt Q9P0L2); experiment: Inhibition of human full length MARK1 expressed in baculovirus assessed as substrate phosphorylation using fluorescence-labelled peptides as substrate at 9 uM after 90 mins by microfluidic peptide phosphorylation assay
# [9] = biological target: T3, Serine/threonine-protein kinase BRSK1 (Homo sapiens) (UniProt Q8TDC3); experiment: Inhibition of human full length BRSK1 expressed in baculovirus assessed as substrate phosphorylation using fluorescence-labelled peptides as substrate at 9 uM after 90 mins by microfluidic peptide phosphorylation assay
# T3 sequence (whole entry): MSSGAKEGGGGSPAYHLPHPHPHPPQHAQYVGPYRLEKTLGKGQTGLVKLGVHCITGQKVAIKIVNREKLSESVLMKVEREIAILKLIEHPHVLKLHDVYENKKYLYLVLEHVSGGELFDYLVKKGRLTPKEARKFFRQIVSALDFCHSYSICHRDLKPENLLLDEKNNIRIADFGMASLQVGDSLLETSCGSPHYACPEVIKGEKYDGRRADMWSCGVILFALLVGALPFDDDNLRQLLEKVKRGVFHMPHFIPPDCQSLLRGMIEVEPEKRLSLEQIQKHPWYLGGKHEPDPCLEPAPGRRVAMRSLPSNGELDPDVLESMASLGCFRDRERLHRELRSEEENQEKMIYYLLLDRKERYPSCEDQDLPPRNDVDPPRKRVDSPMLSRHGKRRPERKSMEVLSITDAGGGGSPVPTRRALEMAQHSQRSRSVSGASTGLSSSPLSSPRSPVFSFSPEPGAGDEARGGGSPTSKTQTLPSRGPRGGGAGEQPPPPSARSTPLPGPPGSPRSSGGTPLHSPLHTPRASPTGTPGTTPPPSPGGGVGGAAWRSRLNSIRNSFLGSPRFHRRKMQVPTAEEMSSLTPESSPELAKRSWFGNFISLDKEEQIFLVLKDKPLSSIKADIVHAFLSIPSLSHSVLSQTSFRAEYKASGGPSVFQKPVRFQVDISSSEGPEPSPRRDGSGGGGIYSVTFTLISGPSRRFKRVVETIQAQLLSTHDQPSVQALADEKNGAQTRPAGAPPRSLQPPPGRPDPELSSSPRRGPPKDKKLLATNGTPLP
# [10] = biological target: Aurora kinase B (Homo sapiens) (UniProt Q96GD4); experiment: Inhibition of human full length AurB expressed in baculovirus assessed as substrate phosphorylation using fluorescence-labelled peptides as substrate at 95 uM after 90 mins by microfluidic peptide phosphorylation assay
# Chain of Aurora kinase B (Homo sapiens) (Q96GD4 whole entry, the tested form may be a part): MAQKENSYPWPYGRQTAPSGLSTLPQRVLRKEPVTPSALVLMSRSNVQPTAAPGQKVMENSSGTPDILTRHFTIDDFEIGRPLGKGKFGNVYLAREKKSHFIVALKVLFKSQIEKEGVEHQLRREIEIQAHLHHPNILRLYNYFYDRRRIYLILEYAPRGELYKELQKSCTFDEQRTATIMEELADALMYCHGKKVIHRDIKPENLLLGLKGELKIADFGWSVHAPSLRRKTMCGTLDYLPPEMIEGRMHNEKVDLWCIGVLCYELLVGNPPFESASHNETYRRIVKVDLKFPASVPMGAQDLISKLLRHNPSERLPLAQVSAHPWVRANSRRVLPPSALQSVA
# [11] = biological target: Platelet-derived growth factor receptor alpha (Homo sapiens) (UniProt P16234); experiment: Inhibition of human PDGFR alpha catalytic domain expressed in baculovirus assessed as substrate phosphorylation using fluorescence-labelled peptides as substrate at 420 uM after 90 mins by microfluidic peptide phosphorylation assay
# Chain of Platelet-derived growth factor receptor alpha (Homo sapiens) (P16234 whole entry, the tested form may be a part): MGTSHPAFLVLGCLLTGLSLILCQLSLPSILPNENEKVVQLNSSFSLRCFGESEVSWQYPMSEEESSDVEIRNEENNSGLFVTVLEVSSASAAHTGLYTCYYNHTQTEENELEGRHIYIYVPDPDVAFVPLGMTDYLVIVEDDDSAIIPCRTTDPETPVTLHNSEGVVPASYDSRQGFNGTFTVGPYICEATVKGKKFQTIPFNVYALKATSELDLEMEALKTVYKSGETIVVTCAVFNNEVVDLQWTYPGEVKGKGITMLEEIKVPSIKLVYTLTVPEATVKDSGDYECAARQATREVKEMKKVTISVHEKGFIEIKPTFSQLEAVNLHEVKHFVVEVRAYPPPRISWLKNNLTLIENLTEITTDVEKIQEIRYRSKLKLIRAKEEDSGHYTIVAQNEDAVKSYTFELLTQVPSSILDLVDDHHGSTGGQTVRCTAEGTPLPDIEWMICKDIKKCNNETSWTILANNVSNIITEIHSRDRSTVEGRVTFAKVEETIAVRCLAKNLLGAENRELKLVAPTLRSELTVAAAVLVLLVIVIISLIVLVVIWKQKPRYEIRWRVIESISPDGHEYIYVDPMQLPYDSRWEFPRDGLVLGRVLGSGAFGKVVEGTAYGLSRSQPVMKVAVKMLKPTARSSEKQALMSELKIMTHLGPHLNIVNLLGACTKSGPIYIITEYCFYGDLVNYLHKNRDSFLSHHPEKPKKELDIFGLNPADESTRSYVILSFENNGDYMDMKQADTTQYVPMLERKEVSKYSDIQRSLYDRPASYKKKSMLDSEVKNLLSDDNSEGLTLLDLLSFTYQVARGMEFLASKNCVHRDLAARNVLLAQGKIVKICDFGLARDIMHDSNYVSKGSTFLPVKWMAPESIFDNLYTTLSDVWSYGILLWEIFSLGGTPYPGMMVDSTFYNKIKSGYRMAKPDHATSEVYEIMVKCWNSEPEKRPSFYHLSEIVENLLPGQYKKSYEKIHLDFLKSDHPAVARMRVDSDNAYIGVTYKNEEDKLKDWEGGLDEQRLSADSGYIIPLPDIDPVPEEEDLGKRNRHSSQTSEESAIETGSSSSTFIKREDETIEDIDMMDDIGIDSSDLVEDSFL
# [12] = biological target: Vascular endothelial growth factor receptor 2 (Homo sapiens) (UniProt P35968); experiment: Inhibition of human KDR cytoplasmic domain expressed in baculovirus assessed as substrate phosphorylation using fluorescence-labelled peptides as substrate at 420 uM after 90 mins by microfluidic peptide phosphorylation assay
# Chain of Vascular endothelial growth factor receptor 2 (Homo sapiens) (P35968 whole entry, the tested form may be a part): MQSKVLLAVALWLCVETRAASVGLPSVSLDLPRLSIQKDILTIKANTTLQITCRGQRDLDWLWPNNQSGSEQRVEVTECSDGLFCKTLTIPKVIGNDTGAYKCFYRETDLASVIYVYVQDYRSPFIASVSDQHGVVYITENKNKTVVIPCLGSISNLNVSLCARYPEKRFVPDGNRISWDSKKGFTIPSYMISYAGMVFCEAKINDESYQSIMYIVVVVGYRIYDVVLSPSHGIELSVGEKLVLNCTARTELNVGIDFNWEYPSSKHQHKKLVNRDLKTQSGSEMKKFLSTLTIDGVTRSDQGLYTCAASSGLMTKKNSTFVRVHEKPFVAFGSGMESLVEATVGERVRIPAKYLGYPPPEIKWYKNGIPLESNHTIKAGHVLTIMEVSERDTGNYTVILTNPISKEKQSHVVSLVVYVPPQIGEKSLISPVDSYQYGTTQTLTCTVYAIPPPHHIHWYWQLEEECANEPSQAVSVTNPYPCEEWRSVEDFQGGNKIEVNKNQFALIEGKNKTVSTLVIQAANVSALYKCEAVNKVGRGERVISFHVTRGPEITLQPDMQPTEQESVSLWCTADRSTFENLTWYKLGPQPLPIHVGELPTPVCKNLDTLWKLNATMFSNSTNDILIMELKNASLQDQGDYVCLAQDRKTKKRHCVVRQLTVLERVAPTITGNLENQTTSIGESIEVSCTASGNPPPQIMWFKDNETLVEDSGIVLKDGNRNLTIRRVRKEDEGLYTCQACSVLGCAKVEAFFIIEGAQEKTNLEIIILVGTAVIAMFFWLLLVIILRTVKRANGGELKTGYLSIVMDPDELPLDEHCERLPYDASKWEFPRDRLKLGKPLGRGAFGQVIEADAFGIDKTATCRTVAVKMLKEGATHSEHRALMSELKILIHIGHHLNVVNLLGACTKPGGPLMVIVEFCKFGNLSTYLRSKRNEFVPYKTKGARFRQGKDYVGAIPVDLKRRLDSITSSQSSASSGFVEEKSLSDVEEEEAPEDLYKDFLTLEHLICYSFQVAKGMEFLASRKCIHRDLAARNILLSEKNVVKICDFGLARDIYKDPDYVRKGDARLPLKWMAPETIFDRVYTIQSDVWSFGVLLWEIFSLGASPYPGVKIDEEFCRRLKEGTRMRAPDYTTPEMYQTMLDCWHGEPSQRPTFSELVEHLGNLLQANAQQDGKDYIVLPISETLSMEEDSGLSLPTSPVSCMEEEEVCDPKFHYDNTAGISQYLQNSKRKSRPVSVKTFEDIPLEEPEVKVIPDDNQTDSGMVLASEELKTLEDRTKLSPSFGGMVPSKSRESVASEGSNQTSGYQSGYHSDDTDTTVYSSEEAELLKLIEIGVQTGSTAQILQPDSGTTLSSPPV
# [13] = biological target: Tyrosine-protein kinase Fyn (Homo sapiens) (UniProt P06241); experiment: Inhibition of human full length FYN expressed in baculovirus assessed as substrate phosphorylation using fluorescence-labelled peptides as substrate at 420 uM after 90 mins by microfluidic peptide phosphorylation assay
# Chain of Tyrosine-protein kinase Fyn (Homo sapiens) (P06241 2-537 limits assumed): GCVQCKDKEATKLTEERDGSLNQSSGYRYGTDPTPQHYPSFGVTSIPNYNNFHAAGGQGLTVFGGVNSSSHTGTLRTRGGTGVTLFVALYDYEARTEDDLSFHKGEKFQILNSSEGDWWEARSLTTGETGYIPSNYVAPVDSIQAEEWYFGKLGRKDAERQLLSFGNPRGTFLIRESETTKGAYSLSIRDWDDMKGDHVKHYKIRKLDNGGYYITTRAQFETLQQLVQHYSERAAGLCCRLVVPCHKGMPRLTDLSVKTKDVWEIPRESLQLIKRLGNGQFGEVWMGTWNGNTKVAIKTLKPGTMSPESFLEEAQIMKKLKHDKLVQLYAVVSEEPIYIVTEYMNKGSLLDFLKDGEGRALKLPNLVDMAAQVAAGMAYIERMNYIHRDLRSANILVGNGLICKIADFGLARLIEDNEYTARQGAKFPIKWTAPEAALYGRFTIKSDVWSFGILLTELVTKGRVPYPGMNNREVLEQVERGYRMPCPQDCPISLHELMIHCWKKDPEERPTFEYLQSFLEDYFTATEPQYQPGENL
# [14] = biological target: Tyrosine-protein kinase BTK (Homo sapiens) (UniProt Q06187); experiment: Inhibition of human full length BTK expressed in baculovirus assessed as substrate phosphorylation using fluorescence-labelled peptides as substrate at 420 uM after 90 mins by microfluidic peptide phosphorylation assay
# Chain of Tyrosine-protein kinase BTK (Homo sapiens) (Q06187 whole entry): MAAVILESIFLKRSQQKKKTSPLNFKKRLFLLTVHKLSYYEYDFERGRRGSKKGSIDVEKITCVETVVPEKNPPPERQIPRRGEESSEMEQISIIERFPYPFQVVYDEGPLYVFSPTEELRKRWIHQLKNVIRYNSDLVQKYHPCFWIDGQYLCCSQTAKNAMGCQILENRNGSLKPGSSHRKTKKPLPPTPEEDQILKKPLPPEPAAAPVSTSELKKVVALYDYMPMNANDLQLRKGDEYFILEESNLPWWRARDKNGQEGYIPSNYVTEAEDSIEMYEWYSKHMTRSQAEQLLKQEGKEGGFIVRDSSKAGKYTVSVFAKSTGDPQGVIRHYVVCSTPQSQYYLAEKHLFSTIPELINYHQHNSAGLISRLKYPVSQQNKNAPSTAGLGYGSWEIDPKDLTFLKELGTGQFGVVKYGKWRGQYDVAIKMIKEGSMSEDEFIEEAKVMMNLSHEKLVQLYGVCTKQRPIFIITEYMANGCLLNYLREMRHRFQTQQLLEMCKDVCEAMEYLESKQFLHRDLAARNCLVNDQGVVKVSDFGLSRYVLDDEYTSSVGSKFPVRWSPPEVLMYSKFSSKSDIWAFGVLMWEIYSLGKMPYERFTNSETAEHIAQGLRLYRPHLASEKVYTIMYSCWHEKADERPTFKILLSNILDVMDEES
structure (smiles),measurement,setting,value
NCC1CCN(c2ncnc3[nH]ccc23)CC1,inhibition,[1],82%
same,inhibition,[2],11.5%
same,inhibition,[3],1.5%
NC1(Cc2ccc(Cl)cc2)CCN(c2ncnc3[nH]ccc23)CC1,inhibition,[4],3%
Clc1ccc(C2(c3ccc(-c4ncnc5[nH]cnc45)cc3)CCNCC2)cc1,inhibition,[5],36.5%
same,inhibition,[6],11%
NCC1CN(c2ncnc3[nH]c4cnccc4c23)CCO1 (centres undefined),inhibition,[7],11.5%
same,inhibition,[8],2%
same,inhibition,[9],29.5%
NCCc1ccc(-c2ncnc3[nH]cnc23)cc1,inhibition,[10],97%
c1nc(N2CCOCC2)c2nc[nH]c2n1,inhibition,[11],32.5%
same,inhibition,[12],95.5%
same,inhibition,[13],64.5%
same,inhibition,[14],55%
